# Measurements reported in PubChem BioAssay AID1259407 (Chemical Carcinogenesis Research Information System (CCRIS), 2018).
# Active and inactive are the calls of the source. How the calls were made is not given here.
# Test system: CCRIS mutagenicity, Ames/micronucleus/aberration tests
# Test: CCRIS mutagenicity studies
# [1] = Test System: AMES SALMONELLA TYPHIMURIUM, Strain/Indicator: TA100, Metabolic Activation: NONE, Method: PREINCUBATION
# [2] = Test System: AMES SALMONELLA TYPHIMURIUM, Strain/Indicator: TA98, Metabolic Activation: NONE, Method: PREINCUBATION
# [3] = Test System: AMES SALMONELLA TYPHIMURIUM, Strain/Indicator: TA1535, Metabolic Activation: NONE, Method: PREINCUBATION
# [4] = Test System: AMES SALMONELLA TYPHIMURIUM, Strain/Indicator: TA1537, Metabolic Activation: NONE, Method: PREINCUBATION
smiles,measurement,setting,value
Cc1cccc(NO)c1C,mutagenic call,[1],active; positive
same,mutagenic call,"Test System: AMES SALMONELLA TYPHIMURIUM, Strain/Indicator: TA100, Metabolic Activation: RAT, LIVER, S-9, PCB, Method: PREINCUBATION",active; positive
[CH3][Hg][CH3],mutagenic call,"End Point: IN VITRO CHROMOSOMAL ABERRATIONS, Test System: HUMAN PERIPHERAL LYMPHOCYTES, Metabolic Activation: NONE",active; positive (structural changes and ploidy)
same,mutagenic call,"Test System: CHINESE HAMSTER G10, Strain/Indicator: G10/6-THIOGUANINE, Metabolic Activation: NONE",inactive; negative
same,mutagenic call,"Test System: CHINESE HAMSTER G12, Strain/Indicator: G12/6-THIOGUANINE, Metabolic Activation: NONE",inactive; negative
same,mutagenic call,"Test System: CHINESE HAMSTER V-79, Strain/Indicator: V-79/6-THIOGUANINE, Metabolic Activation: NONE",inactive; negative
CC(=O)OCCO,mutagenic call,"Test System: AMES SALMONELLA TYPHIMURIUM, Strain/Indicator: TA98, Metabolic Activation: NONE, Method: STANDARD PLATE",inactive; negative
same,mutagenic call,"Test System: AMES SALMONELLA TYPHIMURIUM, Strain/Indicator: TA98, Metabolic Activation: RAT, LIVER, MICROSOMES, Method: STANDARD PLATE",inactive; negative
same,mutagenic call,"Test System: AMES SALMONELLA TYPHIMURIUM, Strain/Indicator: TA100, Metabolic Activation: NONE, Method: STANDARD PLATE",inactive; negative
same,mutagenic call,"Test System: AMES SALMONELLA TYPHIMURIUM, Strain/Indicator: TA100, Metabolic Activation: RAT, LIVER, MICROSOMES, Method: STANDARD PLATE",inactive; negative
OC1C=C2c3cc4ccccc4cc3-c3cccc(c32)C1O (stereo unspecified),mutagenic call,"Test System: AMES SALMONELLA TYPHIMURIUM, Strain/Indicator: TA100, Metabolic Activation: RAT, LIVER, S-9, AROCLOR 1254, Method: STANDARD PLATE",active; positive
O=[N+]([O-])c1cccc2cccc([N+](=O)[O-])c12,mutagenic call,"End Point: IN VITRO CHROMOSOMAL ABERRATIONS, Test System: CHL CELLS, Metabolic Activation: NONE",inactive; negative
same,mutagenic call,"End Point: IN VITRO CHROMOSOMAL ABERRATIONS, Test System: CHL CELLS, Metabolic Activation: RAT, LIVER, S-9, SODIUM PHENOBARBITAL AND 5,6-BENZOFLAVONE",active; positive (structural changes)
same,mutagenic call,"Test System: AMES SALMONELLA TYPHIMURIUM, Strain/Indicator: TA98, Metabolic Activation: HAMSTER, LIVER, S-9, AROCLOR 1254, FLAVIN MONONUCLEOTIDE, Method: PREINCUBATION",active; positive
same,mutagenic call,"Test System: AMES SALMONELLA TYPHIMURIUM, Strain/Indicator: TA98, Metabolic Activation: HAMSTER, LIVER, S-9, AROCLOR 1254, Method: PREINCUBATION",active; positive
same,mutagenic call,[2],active; positive
same,mutagenic call,"Test System: AMES SALMONELLA TYPHIMURIUM, Strain/Indicator: TA98, Metabolic Activation: RAT LIVER S-9, PHENOBARBITAL AND BETA-NAPHTHOFLAVONE, Method: PREINCUBATION",active; positive
same,mutagenic call,"Test System: AMES SALMONELLA TYPHIMURIUM, Strain/Indicator: TA98, Metabolic Activation: RAT, LIVER, S-9, AROCLOR 1254, FLAVIN MONONUCLEOTIDE, Method: PREINCUBATION",active; positive
same,mutagenic call,"Test System: AMES SALMONELLA TYPHIMURIUM, Strain/Indicator: TA98, Metabolic Activation: RAT, LIVER, S-9, AROCLOR 1254, Method: STANDARD PLATE",active; positive
same,mutagenic call,[1],active; positive
same,mutagenic call,"Test System: AMES SALMONELLA TYPHIMURIUM, Strain/Indicator: TA100, Metabolic Activation: RAT LIVER S-9, PHENOBARBITAL AND BETA-NAPHTHOFLAVONE, Method: PREINCUBATION",active; positive
same,mutagenic call,[3],inactive; negative
same,mutagenic call,"Test System: AMES SALMONELLA TYPHIMURIUM, Strain/Indicator: TA1535, Metabolic Activation: RAT LIVER S-9, PHENOBARBITAL AND BETA-NAPHTHOFLAVONE, Method: PREINCUBATION",inactive; negative
same,mutagenic call,[4],active; positive
same,mutagenic call,"Test System: AMES SALMONELLA TYPHIMURIUM, Strain/Indicator: TA1537, Metabolic Activation: RAT LIVER S-9, PHENOBARBITAL AND BETA-NAPHTHOFLAVONE, Method: PREINCUBATION",active; positive
same,mutagenic call,"Test System: AMES SALMONELLA TYPHIMURIUM, Strain/Indicator: TA1538, Metabolic Activation: NONE, Method: PREINCUBATION",active; positive
same,mutagenic call,"Test System: AMES SALMONELLA TYPHIMURIUM, Strain/Indicator: TA1538, Metabolic Activation: RAT LIVER S-9, PHENOBARBITAL AND BETA-NAPHTHOFLAVONE, Method: PREINCUBATION",active; positive
same,mutagenic call,"Test System: E.COLI, Strain/Indicator: WP2UVRA, Metabolic Activation: NONE, Method: PREINCUBATION",inactive; negative
same,mutagenic call,"Test System: E.COLI, Strain/Indicator: WP2UVRA, Metabolic Activation: RAT LIVER S-9, PHENOBARBITAL AND BETA-NAPHTHOFLAVONE, Method: PREINCUBATION",active; positive
CC(/C=C(/C#N)c1ccc(Br)cc1)C(c1ccccc1)C(C#N)c1ccc(Br)cc1 (stereo unspecified),mutagenic call,"Test System: AMES SALMONELLA TYPHIMURIUM, Strain/Indicator: TA97A, Metabolic Activation: NONE, Method: STANDARD PLATE",inactive; negative
C=C(C)C#N,mutagenic call,"Test System: AMES SALMONELLA TYPHIMURIUM, Strain/Indicator: TA97, Metabolic Activation: HAMSTER, LIVER, S-9, AROCLOR 1254 (10%), Method: PREINCUBATION",inactive; negative
same,mutagenic call,"Test System: AMES SALMONELLA TYPHIMURIUM, Strain/Indicator: TA97, Metabolic Activation: HAMSTER, LIVER, S-9, AROCLOR 1254 (30%), Method: PREINCUBATION",inactive; negative
same,mutagenic call,"Test System: AMES SALMONELLA TYPHIMURIUM, Strain/Indicator: TA97, Metabolic Activation: NONE, Method: PREINCUBATION",inactive; negative
same,mutagenic call,"Test System: AMES SALMONELLA TYPHIMURIUM, Strain/Indicator: TA97, Metabolic Activation: RAT, LIVER, S-9, AROCLOR 1254 (10 OR 30%), Method: PREINCUBATION",inactive; negative
same,mutagenic call,"Test System: AMES SALMONELLA TYPHIMURIUM, Strain/Indicator: TA98, Metabolic Activation: HAMSTER, LIVER, S-9, AROCLOR 1254 (10%), Method: PREINCUBATION",inactive; negative
same,mutagenic call,"Test System: AMES SALMONELLA TYPHIMURIUM, Strain/Indicator: TA98, Metabolic Activation: HAMSTER, LIVER, S-9, AROCLOR 1254 (30%), Method: PREINCUBATION",inactive; negative
same,mutagenic call,[2],inactive; negative
same,mutagenic call,"Test System: AMES SALMONELLA TYPHIMURIUM, Strain/Indicator: TA98, Metabolic Activation: RAT, LIVER, S-9, AROCLOR 1254 (10%), Method: PREINCUBATION",inactive; negative
same,mutagenic call,"Test System: AMES SALMONELLA TYPHIMURIUM, Strain/Indicator: TA100, Metabolic Activation: HAMSTER, LIVER, S-9, AROCLOR 1254 (10%), Method: PREINCUBATION",inactive; negative
same,mutagenic call,"Test System: AMES SALMONELLA TYPHIMURIUM, Strain/Indicator: TA100, Metabolic Activation: HAMSTER, LIVER, S-9, AROCLOR 1254 (30%), Method: PREINCUBATION",inactive; negative
same,mutagenic call,[1],inactive; negative
same,mutagenic call,"Test System: AMES SALMONELLA TYPHIMURIUM, Strain/Indicator: TA100, Metabolic Activation: RAT, LIVER, S-9, AROCLOR 1254 (10 OR 30%), Method: PREINCUBATION",inactive; negative
same,mutagenic call,"Test System: AMES SALMONELLA TYPHIMURIUM, Strain/Indicator: TA1535, Metabolic Activation: HAMSTER, LIVER, S-9, AROCLOR 1254 (10%), Method: PREINCUBATION",inactive; negative
same,mutagenic call,"Test System: AMES SALMONELLA TYPHIMURIUM, Strain/Indicator: TA1535, Metabolic Activation: HAMSTER, LIVER, S-9, AROCLOR 1254 (30%), Method: PREINCUBATION",inactive; negative
same,mutagenic call,[3],inactive; negative
same,mutagenic call,"Test System: AMES SALMONELLA TYPHIMURIUM, Strain/Indicator: TA1535, Metabolic Activation: RAT, LIVER, S-9, AROCLOR 1254 (10 OR 30%), Method: PREINCUBATION",inactive; negative
same,mutagenic call,"Test System: AMES SALMONELLA TYPHIMURIUM, Strain/Indicator: TA1537, Metabolic Activation: HAMSTER, LIVER, S-9, AROCLOR 1254 (10%), Method: PREINCUBATION",inactive; negative
same,mutagenic call,"Test System: AMES SALMONELLA TYPHIMURIUM, Strain/Indicator: TA1537, Metabolic Activation: HAMSTER, LIVER, S-9, AROCLOR 1254 (30%), Method: PREINCUBATION",inactive; negative
same,mutagenic call,[4],inactive; negative
same,mutagenic call,"Test System: AMES SALMONELLA TYPHIMURIUM, Strain/Indicator: TA1537, Metabolic Activation: RAT, LIVER, S-9, AROCLOR 1254 (10 OR 30%), Method: PREINCUBATION",inactive; negative
same,mutagenic call,"Test System: UDS HUMAN HEPATOMA HEPG2 CELLS, Strain/Indicator: THY INCORP, Metabolic Activation: NONE, Method: LIQUID SCINTILLATION COUNTING",active; positive
CC(=O)Nc1ccc2ncccc2c1,mutagenic call,[2],inactive; negative
same,mutagenic call,"Test System: AMES SALMONELLA TYPHIMURIUM, Strain/Indicator: TA98, Metabolic Activation: RAT, LIVER, S-9, KANECHLOR 500, Method: PREINCUBATION",inactive; negative
same,mutagenic call,[1],inactive; negative
same,mutagenic call,"Test System: AMES SALMONELLA TYPHIMURIUM, Strain/Indicator: TA100, Metabolic Activation: RAT, LIVER, S-9, KANECHLOR 500, Method: PREINCUBATION",active; positive
Cc1ccc2cccc([N+](=O)[O-])c2c1,mutagenic call,[2],active; positive
